# Test results from patent US20100031388A1, “MUTANT HISTIDINE KINASE THAT CONFERS SPONTANEOUS NODULATION IN PLANTS” (Plant Biosciences Ltd., priority 2006, published 2010).
# How the values were obtained:
# [1] = system: Lrr5, Lhk1 and Nin transcripts; test: Quantitative RT-PCR of Lrr5, Lhk1 and Nin transcripts in roots and root explants in response to cytokinin; format: in vivo, Lotus japonicus
# Method: Steady state levels of Lhk1 and ARR transcripts were determined in roots and other plant organs by quantitative RT-PCR analysis according to the following protocol.
# Wild type and snf2 seeds were surface sterilised and germinated as described previously (Handberg, and Stougaard, (1992) Plant J. 2: 487). Plants were grown with 16 h light/8 h dark period at 21° C. Total RNA was isolated from roots, nodules, leaves, flowers and pods of inoculated wild type L. japonicus. mRNA was extracted from roots of wild type and snf2 plants grown for 2 weeks on ¼ B&D (Broughton and Dilworth, (1971) Biochem. J. 125: 1075) supplemented with 0.5 μM potassium nitrate. Roots were treated with 10 μM BAP for three time points, 30 minutes, 3 hours and 8 hours. Untreated roots were taken as control. mRNA was also extracted from root segments of wild type and snf2 plants grown for 10 days on hormone-free B5 salt medium and B5 salt medium supplemented with 0.5 μg/ml of BAP. Dynabeads mRNA direct kit (Invitrogen) was used for the extraction of mRNA.
# First strand cDNA was prepared using reverse transcriptase (Fermentas). Quantitative PCR was performed on a Light Cycler (Roche Molecular Biochemicals) using Fast Start DNA master SYBR green kit (Roche) to amplify the target transcripts from 5 μl diluted cDNA. Four house keeping genes (Czechowski et al., (2005) Genome analysis 139: 5) were used to determine the relative expression of target genes (see below). For each treatment, normalized relative ratios of the target genes and the four independent house keeping genes have been calculated using the Relative Quantification Software (Quant) from Roche. The geometric mean (Vandesompele et al., (2002)Genome Biology 3:1) of the relative expression ratios for the three biological and technical replicates and the corresponding 95% intervals of confidence have been calculated as described previously (Radutoiu et al., (2003) Nature 425: 585).
# [2] = system: L. japonicus wild type and snf2 plants; conditions: increasing concentrations of BAP, 3 weeks (FIG. 8)
# Method: Accordingly, wild type and snf2 plants were grown on ½ B5 salt with and without increasing concentrations of BAP for 3 weeks. Shoot and root length of at least 60 plants for each treatment was measured.
# [3] = system: mutant LHK1 cytokinin receptor (snf2 allele); conditions: liquid culture, snf2 allele expressing cells (FIG. 5B)
# From the text: (§1) In this assay cytokinin induction can be determined without interference from endogenous cytokinin levels, cytokinin penetration and interfering metabolic pathways present in plants. The phosphorelay exploited in this assay is normally involved in regulating bacterial extracellular polysaccharide synthesis through activation of the cps operon in response to a sensor (RcsC), which has a domain structure similar to plant cytokinin receptors. Functional expression of a cytokinin receptor in an E. coli strain deleted of RcsC sensor allows cytokinin perception to be read out as β-galactosidase activity from the expression of a cps::lacZ fusion.
# (§2) Accordingly the Lhk1 cDNAs, corresponding to wild type and snf2 allele were cloned into the pIN-III expression vector and transformed into the sensor-negative SRC122 (ΔRcsC) strain harbouring the cps::lacZ gene. The transformants were grown overnight in liquid […] and then spotted on LB plates, supplemented with and without t-zeatin, kinetin, BAP (200 μM) each and thidiazuron (50 μM). The LB media was further supplemented with X-Gal (5-bromo-4-chloro-3-indolyl-β-D-[…]), a β-galactosidase substrate. After 40 hours incubation at room temperature (25° C.), the plates were photographed. E coli strain (SRC122) was taken as a negative control.
# [4] = system: wild type LHK1 cytokinin receptor; conditions: liquid culture, LHK1 expressing cells (FIG. 5B)
# From the text: as §1, §2
# cps::lacZ reporter = test: Two-component phosphorelay assay in E. coli SRC122 (cps::lacZ), receptor activity read out as β-galactosidase; format: cell-based; conditions: LB plates with/without t-zeatin, kinetin, BAP (200 μM) or thidiazuron (50 μM), 40 hours, 25° C.
# From the text: as §1, §2
# wild type Lotus roots = test: Spontaneous nodulation of wild type hairy roots transformed via A. rhizogenes, scored without rhizobia; format: in vivo, Lotus japonicus; conditions: scored in absence of M. loti
# Method: Transgenic expression of the wild type or mutant snf2 allele in wild type Lotus roots was performed in order to confirm in planta the genetic basis for the spontaneous nodulation phenotype. A genomic fragment of 12.7 kb from the BAC clone 1 K18 was used to clone out the wild type Lhk1 gene including a 2.2 kb promoter region, and its Snf2 allele comprising the C→T transition, which were then sub-cloned into the pIV10 plasmid. The constructs were integrated into A. rhizogenes strain AR12 by tri-parental mating. Transformation was performed as described by Stougaard (1995) Method Mol Biology 49: Plant Gene Transfer and Expression Protocols, p. 49-63, and included transformation with an empty vector control.
compound,measurement,setting,value
"c1ccc(CNc2ncnc3nc[nH]c23)cc1 [BAP, 6-benzylaminopurine]",increase of Lrr5 transcript level,"[1]; snf2 and wild-type root explants on B5 medium, 0.5 μg/ml BAP, 10 days (FIG. 7B)",two to three-fold
"C/C(=C\CNc1ncnc2nc[nH]c12)CO [Cytokinin, Trans-zeatin]",Lrr5 transcript level,"[1]; direct treatment of intact snf2 and wild-type roots, 10 μM BAP, 30 minutes, 3 hours, 8 hours (FIG. 7C)",increased
same,Lhk1 gene transcripts,[1]; intact wild type and snf2 roots (FIG. 7D),increase rapidly
same,Nin gene transcription,[1]; intact wild type and snf2 roots (FIG. 7E),transcriptionally upregulated
same,sensitivity of shoot and root growth of snf2 plants compared to wild type,[2],hypersensitive
same,increase of β-galactosidase activity on cytokinin addition,[3],only a marginal increase
same,induction of β-galactosidase activity on cytokinin addition,[4],two fold induction
"Wild type Lhk1 allele: Wild type Lotus histidine kinase gene Lhk1 (SEQ ID NO:1, 2) encoding LHK1 cytokinin receptor protein (SEQ ID NO:3)","β-galactosidase activity, plate assay (X-Gal)",cps::lacZ reporter,induced β-galactosidase activity in a cytokinin-dependent fashion
same,nodule number/nodulated plant,wild type Lotus roots,0
same,nodule number/plant,wild type Lotus roots,0
same,% spontaneous nodulation,wild type Lotus roots; (nodulated/total plants),0 (0/41) %
